This is an account of results in PMC10302146, “Dual Anta-Inhibitors Targeting Protein Kinase CK1δ and A2A Adenosine Receptor Useful in Neurodegenerative Disorders” (Molecules, 2023).

Some results are limits rather than exact numbers.

The target of one data set is human recombinant A2AAR. The arrangement: method as in PMID 37259317. The note with it: cited from earlier work; for Ki: [3H]NECA, membranes from CHO cells stably transfected, means ± standard errors, read-out: KiA2A.
The next data set addresses human recombinant A1AR. More on the design: method as in PMID 37259317. Conditions: [3H]CCPA, membranes from CHO cells stably transfected; means ± standard errors; read-out: KiA1; cited from earlier work.
The next data set addresses human recombinant A3AR. The arrangement: method as in PMID 37259317. Conditions: [3H]HEMADO, membranes from CHO cells stably transfected; means ± standard errors; read-out: KiA3; cited from earlier work.
The test system of data set [1] is N13 microglial cells. Kind of data set: N13 cell viability, ligand pretreatment 60 min then CK cocktail 48 h (CK1δ inhibition protocol). It is filed as cell-based. The note with it: for cell vitality: CK cocktail alone 69% ± 0.3 vs. control.
A further data set deals with CK1δ. More on the design: method as in PMID 37259317. The note with it: cited from earlier work; for IC50: enzymatic inhibition.
Data set [2] deals with N13 microglial cells. Kind of data set: N13 cell viability (CellTiter 96 AQueous One, MTS), ligands alone. Type of data set: cell-based. The note with it: for cell viability: 60 min, alone. On the procedure:
Starting from these observations, since this double effect could be a suitable strategy for the treatment of chronic neurodegenerative diseases, in which neuroinflammation plays a crucial role, these compounds were tested on an in vitro model of neuroinflammation in comparison with the reference compounds. The experiments were performed using N13 microglial cells. The colorimetric method CellTiter 96® AQueous One Solution Cell Proliferation assay was used to determine the number of live cells in cytotoxicity or proliferation assays. The tetrazole compound MTS was bio-reduced by the cells into formazan, a colored product soluble in the cellular medium. The percentage of cell viability was analyzed through an absorbance reading at 492 nm. The concentrations of ligands were chosen based on the results of binding assays. Specifically, lower, similar, and higher concentrations than the Ki value were used.
Experiments were performed in triplicate.

The test system of another data set is N13 cell line. As to the kind of experiment: Griess assay, nitrite production (antioxidant effect). The note with it: compound 2 4500 nM, ZM241385 10 nM. It is filed as cell-based. From the text: In addition, since oxidative stress has received extensive attention as one important entry point in the pathogenesis of neurodegenerative diseases, the potential antioxidant profile of compounds 1 and 2 was investigated. Oxidative stress and neuroinflammation play synergistic roles in the promotion of neurodegenerative disease progression. During a CNS insult, there is an activation of microglial cells, which stimulate immune responses to instigate tissue repair. If the triggering cause of the immune response is eradicated, the immune response resolves, but if the initial stress persists, it will lead to an overproduction of neurotoxic factors such as chemokines and proinflammatory cytokines such as Tumor Necrosis Factor-α (TNF-α) and Interleukin-1β (IL-1β). This pathological state will lead to an overproduction of ROS and a state of oxidative stress. High levels of ROS inactivate or damage proteins, leading to cellular degeneration and death. Furthermore, ROS can activate proinflammatory pathways, further promoting a harmful environment for vulnerable neurons. In light of this, the potential antioxidant capacity of compounds was studied. […] The combination of anti-inflammatory and antioxidant activities makes compound 2 particularly appealing in counteracting two of the factors involved in the pathogenesis of neurodegenerative pathologies.
The N13 cell line was introduced into a 96-well UV-VIS transparent plate at a population of 1 × 10^4 cells per well in 98 μL of DMEM and incubated overnight. […] After 24 h of incubation, the media from each well was transferred into another 96-well plate, and then 50 µL of the sulphanilamide solution was placed into the wells. After 10 min of incubation at room temperature (rt), 50 µL of the NED solution was dispensed to all wells, and the plate was incubated at rt for an additional 5–10 min. After half an hour, absorbance was measured in the microplate reader GENiosPro using a 520–550 nm filter. All measurements were reproduced in 3–5 replicates. The nitric oxide formation was investigated by measuring nitrite (NO^2−), which is one of two primary breakdown products of NO. A nitrite standard reference curve was used for quantitative evaluation of the concentration of NO^2− in samples.
In general terms: The Griess reaction detects nitrite, a stable product of nitric oxide.

Data set [3] has as its system N13 microglial cells. Kind of data set: N13 cell viability, CK cocktail 48 h pretreatment then ligand (A2AAR antagonist protocol). Conditions: 60 min. On the procedure:
Given the nature of compounds, dual A2A/CK1δ anta-inhibitors, their neuroprotective effect against a neuroinflammatory insult was investigated following two different approaches aimed at studying the antagonist activity on the A2AAR and the inhibitor effect on CK1δ. […] The concentrations used were 35, 65, and 400 µM at 60 min of incubation.
N13 cells were plated in 96-well plates at the confluence of 1 × 10^4 cells/well and incubated overnight. Cells were divided into two groups in order to study the activity of compounds on A2AAR and CK1δ (Scheme 1). […] Cells of the second group were pretreated with 2 µL at different concentrations of understudy ligand, or the reference compound PF670462, for 30 or 60 min and then with further addition of a proinflammatory cocktail of cytokines for 48 h (Scheme 1). After treatment, 20 µL of CellTiter 96® AQueous One Solution Reagent was added to each well to a final volume of 100 µL. After 1 h of incubation, absorbance was measured at 492 nm in the microplate reader GENiosPro. Cell viability was estimated as the relation between the OD of treated cells and the OD of untreated cells in percentage. An untreated control and a control with the solvent were run. Experiments were performed in triplicate.

For `Nc1nc(Cl)nc2c1nc(-c1ccco1)n2C1CCCC1` [compound 4, 2-chloro-9-cyclopentyl-8-(furan-2-yl)-9H-purin-6-amine], the Ki is 3480 ± 312 nM at human recombinant A2AAR, 8660 ± 1520 nM at human recombinant A1AR and 5960 ± 1020 nM at human recombinant A3AR. The “A2AAR antagonism, in words” value in the data set on human recombinant A2AAR was “inactive as an A2AAR antagonist”. The viability (as a rule, a read-out of living cells in per cent, often relative to untreated cells) at 25 µM with N13 microglial cells [1] (N13, 25 µM 60 min before CK cocktail 48 h, CK cocktail alone 78% 1.3 vs. control (Figure 7)) is 108%. Also, in the data set on N13 microglial cells [1] (N13, 50 µM 60 min before CK cocktail 48 h, CK cocktail alone 78% 1.3 vs. control), the viability at 50 µM amounted to 102%. The viability at 500 µM in the data set with N13 microglial cells [1] (N13, 500 µM 60 min before CK cocktail 48 h, CK cocktail alone 78% 1.3 vs. control) was 90%. Moreover, the “% Residual Activity at 10 μM ± sd” value in the data set on CK1δ (10 μM) is reported as 13 ± 24%. For the same compound, the “% Residual Activity at 40 μM ± sd” value in the data set with CK1δ is recorded as 25 ± 9.6%. In addition, in the data set on CK1δ, the IC50 – broadly, the concentration that gives 50% inhibition – is 360 ± 100 nM.
For the compound `Nc1nccc(-c2c(-c3ccc(F)cc3)ncn2C2CCCCC2)n1` [PF-670462, reference compound], the figures for the cell vitality in the data set on N13 microglial cells [1] (0.05 µM 60 min before CK cocktail 48 h) and with N13 microglial cells [1] (0.1 µM 60 min before CK cocktail 48 h) were 96% ± 3.1 and 78% ± 3.5, respectively. Moreover, the cell viability result is recorded as “no significant decrease in cell viability” in the data set with N13 microglial cells [1] (1 µM 60 min before CK cocktail 48 h), “does not affect cell viability” with N13 microglial cells [2] (0.05 µM), 75% ± 1.4 with N13 microglial cells [2] (0.1 µM) and 60% ± 2.9 in the data set on N13 microglial cells [2] (1 µM).
Consider `Nc1nc(NCCc2ccc(O)cc2)nc2nc(-c3ccco3)nn12` [ZM241385, reference compound], for which the “compensation of oxidative stress caused by the CK cocktail” value with N13 cell line was “successfully compensated”. Also, the “cell viability vs. control” value in the data set on N13 microglial cells [2] (0.01 µM, absence of CK cocktail (reference used at 60 min)) is on record as 155% ± 1.9.
`N#CCNc1nc(Cl)nc2c1ncn2C1CCCC1` [compound 3, 2-((2-Chloro-9-cyclopentyl-9H-purin-6-yl)amino)acetonitrile]: the Ki at human recombinant A2AAR is 7 ± 0.01 nM. The Ki at human recombinant A1AR was 118 ± 10 nM. Further, the Ki on human recombinant A3AR is 140 ± 35 nM. Moreover, in the data set with CK1δ, the “% Residual Activity at 40 μM ± sd” value was 86 ± 1.6%; the “CK1δ inhibition, in words” value was “inactive as a CK1δ inhibitor”; the IC50 is over 40000 nM. Further, the “cell vitality increase up to” value in the data set on N13 microglial cells [3] (400 µM, after CK cocktail (Figure 3)) was 93 ± 1.1%. For the same compound, the “counteraction of CK cocktail effect (cell viability)” value with N13 microglial cells [3] (35, 65 and 400 µM, after CK cocktail) is “able to counteract the effect of the CK cocktail but to a lesser extent than compound 2”.
